Patent US8247211B2, “Glycopeptide antibiotics” (American Cyanamid Company, priority 2001, dated 2012)

Legend:
Assay in all cases: In vitro antibacterial evaluation: minimum inhibitory concentration (MIC), broth dilution method
Format in all cases: cell-based
Staphylococcus sp. = details: for MIC Staphylococcus aureus-SMITH (GC 4543): strain GC 4543; for MIC Staphylococcus haemolyticus (GC 4546): strain GC 4546; for MIC Coagulase Negative Staphylococcus (GC 4547): strain GC 4547; for MIC Coagulase Negative Staphylococcus (GC 4548): strain GC 4548; for MIC Coagulase Negative Staphylococcus (GC 4549): strain GC 4549; for MIC Coagulase Negative Staphylococcus (GC 4551): strain GC 4551; for MIC Coagulase Negative Staphylococcus (GC 6257): strain GC 6257; for MIC Staphylococcus aureus (ATCC 29213): strain ATCC 29213; for MIC Staphylococcus aureus (GC 1131): strain GC 1131; for MIC Staphylococcus aureus (GC 3051): strain GC 3051; for MIC Staphylococcus aureus (GC 3053): strain GC 3053; for MIC Staphylococcus aureus (GC 4541): strain GC 4541; for MIC Staphylococcus aureus (GC 4542): strain GC 4542; for MIC Staphylococcus aureus (GC 4544): strain GC 4544; for MIC Staphylococcus aureus (GC 4545): strain GC 4545
How it was run: (§1)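 NCCLS M7-A2 broth dilution; Muller-Hinton II […]; 5×10^5 CFU/mL; 64-0.06 μg/mL. MIC = lowest concentration with no growth.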

Streptococcus sp. = details: 18 hours at 35° C.
How it was run: as §1

Enterococcus sp. = details: 18 hours at 35° C.
How it was run: as §1

Escherichia coli = details: 18 hours at 35° C.
How it was run: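 MIC read as lowest drug level preventing visible growth. Organisms at 5×10^5 CFU/mL were exposed to a 64-0.06 μg/mL dilution series in Muller-Hinton II […] following NCCLS broth dilution standard M7-A2.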

[1] = broth dilution, 18 hours at 35° C.
[2] = broth dilution, inoculum 5×10^5 CFU/mL

Substance: Cyclo[glycyl-4-chloro-β-methylphenylalanyl-O-[4-O-(4,6-O-cyclopentylidenehexopyranosyl)-hexopyranosyl]tyrosyl-3-(2-iminoimidazolidin-4-yl)seryl-3-(3-hexopyranosyl-2-iminoimidazolidin-4-yl)serylseryl] [Example 202]
- MIC Staphylococcus aureus-SMITH (GC 4543) (Staphylococcus sp.; [1]): 4 µg/mL
- MIC Staphylococcus haemolyticus (GC 4546) (Staphylococcus sp.; [1]): 2 µg/mL
- MIC Coagulase Negative Staphylococcus (GC 4547) (Staphylococcus sp.; [1]): 2 µg/mL
- MIC Coagulase Negative Staphylococcus (GC 4548) (Staphylococcus sp.; [1]): 2 µg/mL
- MIC Coagulase Negative Staphylococcus (GC 4549) (Staphylococcus sp.; [1]): 4 µg/mL
- MIC Coagulase Negative Staphylococcus (GC 4551) (Staphylococcus sp.; [1]): 4 µg/mL
- MIC Coagulase Negative Staphylococcus (GC 6257) (Staphylococcus sp.; [1]): 2 µg/mL
- MIC Staphylococcus aureus (ATCC 29213) (Staphylococcus sp.): 4 µg/mL
- MIC Staphylococcus aureus (ATCC 29213) (Staphylococcus sp.; [1]): 4 µg/mL
- MIC Staphylococcus aureus (GC 1131) (Staphylococcus sp.): 4 µg/mL
- MIC Staphylococcus aureus (GC 1131) (Staphylococcus sp.; [1]): 4 µg/mL
- MIC Staphylococcus aureus (GC 3051) (Staphylococcus sp.): 4 µg/mL
- MIC Staphylococcus aureus (GC 3051) (Staphylococcus sp.; [1]): 4 µg/mL
- MIC Staphylococcus aureus (GC 3053) (Staphylococcus sp.): 8 µg/mL
- MIC Staphylococcus aureus (GC 3053) (Staphylococcus sp.; [1]): 8 µg/mL
- MIC Staphylococcus aureus (GC 4541) (Staphylococcus sp.): 4 µg/mL
- MIC Staphylococcus aureus (GC 4541) (Staphylococcus sp.; [1]): 4 µg/mL
- MIC Staphylococcus aureus (GC 4542) (Staphylococcus sp.): 4 µg/mL
- MIC Staphylococcus aureus (GC 4542) (Staphylococcus sp.; [1]): 4 µg/mL
- MIC Staphylococcus aureus-SMITH (GC 4543) (Staphylococcus sp.): 4 µg/mL
- MIC Staphylococcus aureus (GC 4544) (Staphylococcus sp.): 4 µg/mL
- MIC Staphylococcus aureus (GC 4544) (Staphylococcus sp.; [1]): 4 µg/mL
- MIC Staphylococcus aureus (GC 4545) (Staphylococcus sp.): 4 µg/mL
- MIC Staphylococcus aureus (GC 4545) (Staphylococcus sp.; [1]): 4 µg/mL
- MIC Staphylococcus haemolyticus (GC 4546) (Staphylococcus sp.): 2 µg/mL
- MIC Coagulase Negative Staphylococcus (GC 4547) (Staphylococcus sp.): 2 µg/mL
- MIC Coagulase Negative Staphylococcus (GC 4548) (Staphylococcus sp.): 2 µg/mL
- MIC Coagulase Negative Staphylococcus (GC 4549) (Staphylococcus sp.): 4 µg/mL
- MIC Coagulase Negative Staphylococcus (GC 4551) (Staphylococcus sp.): 4 µg/mL
- MIC Coagulase Negative Staphylococcus (GC 6257) (Staphylococcus sp.): 2 µg/mL
- MIC Streptococcus agalactiae (GC 4564) (Streptococcus sp.; Streptococcus agalactiae (GC 4564)): 2 µg/mL
- MIC Streptococcus pneumoniae (ATCC 6301) (Streptococcus sp.; Streptococcus pneumoniae (ATCC 6301)): <0.5 µg/mL
- MIC Streptococcus pneumoniae (GC 1894) (Streptococcus sp.; Streptococcus pneumoniae (GC 1894)): <0.5 µg/mL
- MIC Streptococcus pneumoniae (GC 4565) (Streptococcus sp.; Streptococcus pneumoniae (GC 4565)): 8 µg/mL
- MIC Streptococcus pyogenes (GC 4563) (Streptococcus sp.; Streptococcus pyogenes (GC 4563)): 1 µg/mL
- MIC Streptococcus agalactiae (GC 4564) (Streptococcus sp.; [2]): 2 µg/mL
- MIC Streptococcus pneumoniae (ATCC 6301) (Streptococcus sp.; [2]): <0.5 µg/mL
- MIC Streptococcus pneumoniae (GC 1894) (Streptococcus sp.; [2]): <0.5 µg/mL
- MIC Streptococcus pneumoniae (GC 4565) (Streptococcus sp.; [2]): 8 µg/mL
- MIC Streptococcus pyogenes (GC 4563) (Streptococcus sp.; [2]): 1 µg/mL
- MIC Enterococcus avium (GC 4558) (Enterococcus sp.; Enterococcus avium (GC 4558)): 32 µg/mL
- MIC Enterococcus faecalis (ATCC 29212) (Enterococcus sp.; Enterococcus faecalis (ATCC 29212)): 32 µg/mL
- MIC Enterococcus faecalis (GC 2242) (Enterococcus sp.; Enterococcus faecalis (GC 2242)): 16 µg/mL
- MIC Enterococcus faecalis (GC 2691) (Enterococcus sp.; Enterococcus faecalis (GC 2691)): 16 µg/mL
- MIC Enterococcus faecalis (GC 3059) (Enterococcus sp.; Enterococcus faecalis (GC 3059)): 64 µg/mL
- MIC Enterococcus faecalis (GC 4552) (Enterococcus sp.; Enterococcus faecalis (GC 4552)): 32 µg/mL
- MIC Enterococcus faecalis (GC 4553) (Enterococcus sp.; Enterococcus faecalis (GC 4553)): 32 µg/mL
- MIC Enterococcus faecalis (GC 4554) (Enterococcus sp.; Enterococcus faecalis (GC 4554)): 32 µg/mL
- MIC Enterococcus faecalis (GC 6189) (Enterococcus sp.; Enterococcus faecalis (GC 6189)): 16 µg/mL
- MIC Enterococcus faecium (GC 2243) (Enterococcus sp.; Enterococcus faecium (GC 2243)): 32 µg/mL
- MIC Enterococcus faecium (GC 4556) (Enterococcus sp.; Enterococcus faecium (GC 4556)): 16 µg/mL
- MIC Enterococcus faecium (GC 4557) (Enterococcus sp.; Enterococcus faecium (GC 4557)): 4 µg/mL
- MIC Enterococcus avium (GC 4558) (Enterococcus sp.; [2]): 32 µg/mL
- MIC Enterococcus faecalis (ATCC 29212) (Enterococcus sp.; [2]): 32 µg/mL
- MIC Enterococcus faecalis (GC 2242) (Enterococcus sp.; [2]): 16 µg/mL
- MIC Enterococcus faecalis (GC 2691) (Enterococcus sp.; [2]): 16 µg/mL
- MIC Enterococcus faecalis (GC 3059) (Enterococcus sp.; [2]): 64 µg/mL
- MIC Enterococcus faecalis (GC 4552) (Enterococcus sp.; [2]): 32 µg/mL
- MIC Enterococcus faecalis (GC 4553) (Enterococcus sp.; [2]): 32 µg/mL
- MIC Enterococcus faecalis (GC 4554) (Enterococcus sp.; [2]): 32 µg/mL
- MIC Enterococcus faecalis (GC 6189) (Enterococcus sp.; [2]): 16 µg/mL
- MIC Enterococcus faecium (GC 2243) (Enterococcus sp.; [2]): 32 µg/mL
- MIC Enterococcus faecium (GC 4556) (Enterococcus sp.; [2]): 16 µg/mL
- MIC Enterococcus faecium (GC 4557) (Enterococcus sp.; [2]): 4 µg/mL
- MIC Escherichia coli (ATCC 25922) (Escherichia coli; Escherichia coli (ATCC 25922)): 32 µg/mL
- MIC Escherichia coli (GC 4559) (Escherichia coli; Escherichia coli (GC 4559)): 16 µg/mL
- MIC Escherichia coli (GC 4560) (Escherichia coli; Escherichia coli (GC 4560)): 2 µg/mL
